Drawing on PubChem BioAssay (NCI), this text covers TGI for eight molecules.

Test systems include RXF 393 renal; NCI-H522 lung; NCI/ADR-RES ovarian; BT-549 breast; TK-10 renal; SR leukemia; OVCAR-4 ovarian; HS 578T breast; CAKI-1 renal; LOX IMVI melanoma; MDA-MB-435; MALME-3M melanoma; HL-60(TB) leukemia; PC-3 prostate; HCT-15 colon; CCRF-CEM leukemia; SN12C renal; SF-539 CNS.
Test in all cases: DTP human tumour cell line panel, 48 h

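A five-concentration, 48-hour dose response in 96-well plates underlies each endpoint, interpolated linearly between surrounding concentrations. The concentration for full growth arrest is given as TGI.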 Some results are limits rather than exact numbers.

For `O=C(O)CCC(NC(=O)c1ccc(Oc2nc3ccccc3nc2C(=O)O)cc1)C(=O)O` (configuration not stated), the TGI in the test with RXF 393 renal, in the test on NCI-H522 lung, with NCI/ADR-RES ovarian, with BT-549 breast, in the test with TK-10 renal and in the test with SR leukemia was more than 100 µM in each case. For the same molecule, the TGI with OVCAR-4 ovarian, in the test with HS 578T breast, with CAKI-1 renal, with LOX IMVI melanoma, in the test on MDA-MB-435 and in the test with MALME-3M melanoma was more than 100 µM each time. For the same molecule, the total growth inhibition concentration (TGI) in the test on HL-60(TB) leukemia, in the test on PC-3 prostate, in the test on HCT-15 colon and in the test on CCRF-CEM leukemia was more than 100 µM each time.

On to `COCN1C(=O)[C@@H]2C[C@@H](O)CN2C(=O)c2ccccc21`, for which the total growth inhibition concentration (TGI) with RXF 393 renal, in the test on NCI-H522 lung, in the test on NCI/ADR-RES ovarian, with BT-549 breast, in the test on TK-10 renal and in the test with SR leukemia was more than 100 µM each time. Also, the TGI with OVCAR-4 ovarian, with HS 578T breast, in the test on CAKI-1 renal, in the test with LOX IMVI melanoma, in the test on MDA-MB-435 and in the test on MALME-3M melanoma was more than 100 µM throughout. In addition, the TGI in the test on HL-60(TB) leukemia, in the test with SN12C renal, in the test with PC-3 prostate, with HCT-15 colon and with CCRF-CEM leukemia was more than 100 µM in each case.

For `O=C(N/C(=C\c1ccccc1)c1nc2ccccc2c(=O)o1)c1ccccc1`, the TGI is more than 100 µM in the test on SF-539 CNS; more than 100 µM in the test on RXF 393 renal; more than 100 µM with NCI-H522 lung; more than 100 µM in the test on NCI/ADR-RES ovarian; 66.8 µM with BT-549 breast; more than 100 µM with TK-10 renal. The TGI with SR leukemia was more than 100 µM; with OVCAR-4 ovarian, more than 100 µM; with HS 578T breast, 75.7 µM; in the test with CAKI-1 renal it was more than 100 µM; in the test on LOX IMVI melanoma it was more than 100 µM; in the test with MDA-MB-435 it was more than 100 µM. In addition, the TGI with MALME-3M melanoma, with HL-60(TB) leukemia, in the test on SN12C renal, in the test on PC-3 prostate, with HCT-15 colon and in the test with CCRF-CEM leukemia was more than 100 µM each time.

Consider `CC(=O)Nc1ccc(S(=O)(=O)c2nnc(NC(C)=O)s2)cc1`, for which the concentration for total growth inhibition (TGI) in the test on SF-539 CNS, with RXF 393 renal, with NCI-H522 lung, in the test on NCI/ADR-RES ovarian, with BT-549 breast and with TK-10 renal was more than 100 µM each time. Further, the TGI in the test with SR leukemia, with OVCAR-4 ovarian, in the test on HS 578T breast, with CAKI-1 renal, in the test with LOX IMVI melanoma and in the test on MDA-MB-435 was more than 100 µM in each case. For the same molecule, the TGI in the test with MALME-3M melanoma, in the test with HL-60(TB) leukemia, in the test on SN12C renal, in the test on PC-3 prostate, with HCT-15 colon and in the test on CCRF-CEM leukemia was more than 100 µM in each case.

As for `CCCC(=O)OCC1OC(n2cc(F)c(=O)[nH]c2=O)C(F)C1O` (configuration not stated), the TGI is more than 31.6 µM in the test with SF-539 CNS; more than 100 µM in the test on RXF 393 renal; more than 100 µM with NCI-H522 lung; more than 100 µM in the test with NCI/ADR-RES ovarian; more than 100 µM with BT-549 breast; more than 100 µM in the test on TK-10 renal. Besides, the TGI in the test on SR leukemia, with OVCAR-4 ovarian, with HS 578T breast, in the test on LOX IMVI melanoma, in the test on MDA-MB-435 and in the test on MALME-3M melanoma was more than 100 µM each time. For the same molecule, the TGI with HL-60(TB) leukemia, in the test on SN12C renal, with PC-3 prostate, in the test with HCT-15 colon and in the test with CCRF-CEM leukemia was more than 100 µM each time.

In the case of `O=C(C[C@@H]1CCCN2CCCC[C@H]12)N1c2ccccc2Sc2ccc(Cl)cc21`, the TGI turned out to be 32.1 µM in the test on SF-539 CNS; 29 µM in the test with RXF 393 renal; 26.9 µM with NCI-H522 lung; 29.4 µM with NCI/ADR-RES ovarian; 28 µM in the test with BT-549 breast; 35.5 µM with TK-10 renal. In addition, the TGI with SR leukemia came out at 53 µM; with HS 578T breast, 38.5 µM; in the test with CAKI-1 renal, 27.6 µM; in the test on LOX IMVI melanoma, 27.3 µM; with MDA-MB-435 it was 29.3 µM; with MALME-3M melanoma it was 31.2 µM. Further, the TGI was determined as 36.8 µM in the test with HL-60(TB) leukemia; 32.1 µM with SN12C renal; 27.2 µM in the test with PC-3 prostate; 30.4 µM with HCT-15 colon; 35.1 µM in the test with CCRF-CEM leukemia.

On to `Cc1n[nH]c(=O)n1C1CC1`, for which the TGI in the test on SF-539 CNS, with RXF 393 renal, in the test on NCI-H522 lung, in the test on NCI/ADR-RES ovarian, in the test on BT-549 breast and with SR leukemia was more than 100 µM each time. Moreover, the concentration for total growth inhibition (TGI) in the test with OVCAR-4 ovarian, in the test on HS 578T breast, with CAKI-1 renal, in the test on LOX IMVI melanoma, with MDA-MB-435 and in the test with MALME-3M melanoma was more than 100 µM in each case. Moreover, the concentration for total growth inhibition (TGI) with HL-60(TB) leukemia, in the test with SN12C renal, with PC-3 prostate, in the test with HCT-15 colon and with CCRF-CEM leukemia was more than 100 µM each time.

Regarding `Cn1cc(NC(=O)Nc2cc(C(=O)Nc3cc(C(=O)Nc4ccc5cc(S(=O)(=O)O)cc(S(=O)(=O)O)c5c4)n(C)c3)n(C)c2)cc1C(=O)Nc1cc(C(=O)Nc2ccc3cc(S(=O)(=O)O)cc(S(=O)(=O)O)c3c2)n(C)c1`, the TGI in the test on SF-539 CNS, with RXF 393 renal, in the test on NCI-H522 lung, in the test on NCI/ADR-RES ovarian, in the test with BT-549 breast and in the test with TK-10 renal was more than 100 µM in each case. Besides, the TGI in the test on SR leukemia, with OVCAR-4 ovarian, in the test with HS 578T breast, in the test with LOX IMVI melanoma, with MDA-MB-435 and in the test with MALME-3M melanoma was more than 100 µM in each case. Moreover, the TGI in the test with HL-60(TB) leukemia, in the test on SN12C renal, in the test on PC-3 prostate, with HCT-15 colon and in the test on CCRF-CEM leukemia was more than 100 µM in each case.
